Measured values taken from PubChem BioAssay AID200 (DTP/NCI, 2004).
“And” between values parts separate entries of the source, which are not always exact repeats. Equal values may be shown once. Inconclusive results and toxic doses are left out.

System: B6C3F1 mice, B16 melanoma ip, median survival T/C
Assay: NCI In Vivo Anticancer Drug Screen. Data for tumor model B16 Melanoma (intraperitoneal) in B6C3F1 mice
Conditions: endpoint: median survival time, higher = longer survival
How it was run: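 Readout: survival or tumor size in treated mice relative to vehicle controls (T/C). Model uses transplantable tumors grown in mice.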

[1] = dose: 6.25 mg/kg/injection, schedule: Q01DX009 (ip), vehicle: saline
[2] = dose: 12.5 mg/kg/injection, schedule: Q01DX009 (ip), vehicle: saline
[3] = dose: 25.0 mg/kg/injection, schedule: Q01DX009 (ip), vehicle: saline
[4] = dose: 50.0 mg/kg/injection, schedule: Q01DX009 (ip), vehicle: saline
[5] = dose: 100.0 mg/kg/injection, schedule: Q01DX009 (ip), vehicle: saline
[6] = dose: 200.0 mg/kg/injection, schedule: Q01DX009 (ip), vehicle: saline
[7] = dose: 50.0 mg/kg/injection, schedule: Q01DX009 (ip), vehicle: Klucel (hydroxypropylcellulose) (HPC)
[8] = dose: 100.0 mg/kg/injection, schedule: Q01DX009 (ip), vehicle: Klucel (hydroxypropylcellulose) (HPC)
[9] = dose: 200.0 mg/kg/injection, schedule: Q01DX009 (ip), vehicle: Klucel (hydroxypropylcellulose) (HPC)
[10] = dose: 400.0 mg/kg/injection, schedule: Q01DX009 (ip), vehicle: Klucel (hydroxypropylcellulose) (HPC)

For `C[C@@]1(CO)[C@H](O)CC[C@@]2(C)[C@H]1CC[C@H]1C[C@@H]3C[C@@]12CC[C@@]3(O)COC(=O)CN`, the T/C (dose: 0.02 mg/kg/injection, schedule: Q01DX009 (ip), vehicle: saline + alcohol) was 98 % of control, the T/C (dose: 0.37 mg/kg/injection, schedule: Q01DX009 (ip), vehicle: saline + alcohol) was 94 % of control and the T/C (dose: 0.4 mg/kg/injection, schedule: Q01DX009 (ip), vehicle: saline + alcohol) was 102 % of control. The T/C (dose: 0.75 mg/kg/injection, schedule: Q01DX009 (ip), vehicle: saline + alcohol) was 98 % of control, the T/C (dose: 0.8 mg/kg/injection, schedule: Q01DX009 (ip), vehicle: saline + alcohol) was 124 % of control and the T/C (dose: 1.5 mg/kg/injection, schedule: Q01DX009 (ip), vehicle: saline + alcohol) was 101 % of control. The T/C (dose: 1.6 mg/kg/injection, schedule: Q01DX009 (ip), vehicle: saline + alcohol) was 101 % of control, the T/C (dose: 1.7 mg/kg/injection, schedule: Q01DX005 (iv), vehicle: saline + alcohol) was 108 % of control and the T/C (dose: 2.1 mg/kg/injection, schedule: Q01DX001 (iv), vehicle: saline + alcohol) was 111 % of control. The T/C (dose: 2.1 mg/kg/injection, schedule: Q03HX008 (ip), vehicle: saline + alcohol) was 120 % of control, the T/C (dose: 2.8 mg/kg/injection, schedule: Q03HX024 (ip), vehicle: saline + alcohol) was 97 % of control and the T/C (dose: 3.0 mg/kg/injection, schedule: Q01DX009 (ip), vehicle: saline + alcohol) was 102 % of control. For the same compound, the T/C (dose: 3.4 mg/kg/injection, schedule: Q01DX005 (iv), vehicle: saline + alcohol) was 99 % of control, the T/C (dose: 4.2 mg/kg/injection, schedule: Q01DX001 (iv), vehicle: saline + alcohol) was 103 % of control and the T/C (dose: 4.2 mg/kg/injection, schedule: Q03HX008 (ip), vehicle: saline + alcohol) was 119 % of control. For the same compound, the T/C (dose: 5.0 mg/kg/injection, schedule: Q03HX027 (ip), vehicle: saline + alcohol) was 113 % of control and 105 % of control and 107 % of control, the T/C (dose: 5.0 mg/kg/injection, schedule: Q03HX027 (sc), vehicle: saline + alcohol) was 109 % of control and the T/C (dose: 5.6 mg/kg/injection, schedule: Q03HX024 (ip), vehicle: saline + alcohol) was 116 % of control. For the same compound, the T/C (dose: 6.0 mg/kg/injection, schedule: Q01DX009 (ip), vehicle: saline + alcohol) was 93 % of control, the T/C (dose: 6.75 mg/kg/injection, schedule: Q01DX005 (ip), vehicle: saline + alcohol) was 95 % of control and the T/C (dose: 6.8 mg/kg/injection, schedule: Q01DX005 (iv), vehicle: saline + alcohol) was 96 % of control. For the same compound, the T/C (dose: 8.4 mg/kg/injection, schedule: Q03HX008 (ip), vehicle: saline + alcohol) was 114 % of control, the T/C (dose: 8.5 mg/kg/injection, schedule: Q01DX001 (iv), vehicle: saline + alcohol) was 109 % of control and the T/C (dose: 10.0 mg/kg/injection, schedule: Q03HX027 (ip), vehicle: saline + alcohol) was 117 % of control and 123 % of control. For the same compound, the T/C (dose: 10.0 mg/kg/injection, schedule: Q03HX027 (sc), vehicle: saline) was 102 % of control, the T/C (dose: 12.5 mg/kg/injection, schedule: Q01DX009 (ip), vehicle: saline + alcohol) was 111 % of control and 120 % of control and the T/C (dose: 13.5 mg/kg/injection, schedule: Q01DX005 (ip), vehicle: saline + alcohol) was 104 % of control. The T/C (dose: 15.0 mg/kg/injection, schedule: Q01DX009 (ip), vehicle: saline + alcohol) was 116 % of control, the T/C (dose: 16.8 mg/kg/injection, schedule: Q03HX008 (ip), vehicle: saline + alcohol) was 114 % of control and the T/C (dose: 16.9 mg/kg/injection, schedule: Q01DX001 (ip), vehicle: saline + alcohol) was 103 % of control. The T/C (dose: 16.9 mg/kg/injection, schedule: Q01DX001 (iv), vehicle: saline + alcohol) was 103 % of control, the T/C (dose: 20.0 mg/kg/injection, schedule: Q03HX027 (ip), vehicle: saline + alcohol) was 162 % of control and the T/C (dose: 20.0 mg/kg/injection, schedule: Q03HX027 (sc), vehicle: saline + alcohol) was 108 % of control. For the same compound, the T/C (dose: 20.0 mg/kg/injection, schedule: Q03HX027 (sc), vehicle: saline) was 100 % of control, the T/C (dose: 22.5 mg/kg/injection, schedule: Q04DX003 (ip), vehicle: saline + alcohol) was 98 % of control and the T/C (dose: 25.0 mg/kg/injection, schedule: Q01DX009 (ip), vehicle: saline + alcohol) was 121 % of control and 122 % of control. For the same compound, the T/C (dose: 27.0 mg/kg/injection, schedule: Q01DX005 (ip), vehicle: saline + alcohol) was 124 % of control, the T/C (dose: 27.0 mg/kg/injection, schedule: Q01DX005 (iv), vehicle: saline + alcohol) was 105 % of control and the T/C (dose: 30.0 mg/kg/injection, schedule: Q01DX009 (ip), vehicle: saline + alcohol) was 124 % of control. The T/C (dose: 30.0 mg/kg/injection, schedule: Q01DX009 (oral), vehicle: saline + alcohol) was 115 % of control, the T/C (dose: 33.7 mg/kg/injection, schedule: Q03HX008 (ip), vehicle: saline + alcohol) was 115 % of control and the T/C (dose: 33.8 mg/kg/injection, schedule: Q01DX001 (ip), vehicle: saline + alcohol) was 110 % of control. For the same compound, the T/C (dose: 33.8 mg/kg/injection, schedule: Q01DX001 (iv), vehicle: saline + alcohol) was 115 % of control, the T/C (dose: 40.0 mg/kg/injection, schedule: Q03HX027 (ip), vehicle: saline + alcohol) was 175 % of control and 176 % of control and the T/C (dose: 40.0 mg/kg/injection, schedule: Q03HX027 (sc), vehicle: saline + alcohol) was 98 % of control. For the same compound, the T/C (dose: 40.0 mg/kg/injection, schedule: Q03HX027 (sc), vehicle: saline) was 102 % of control, the T/C (dose: 45.0 mg/kg/injection, schedule: Q04DX003 (ip), vehicle: saline + alcohol) was 92 % of control and the T/C (dose: 50.0 mg/kg/injection, schedule: Q01DX009 (ip), vehicle: saline + alcohol) was 151 % of control. For the same compound, the T/C (dose: 54.0 mg/kg/injection, schedule: Q01DX005 (ip), vehicle: saline + alcohol) was 113 % of control, the T/C (dose: 54.0 mg/kg/injection, schedule: Q01DX005 (iv), vehicle: saline + alcohol) was 115 % of control and the T/C (dose: 60.0 mg/kg/injection, schedule: Q01DX009 (oral), vehicle: saline + alcohol) was 117 % of control. The T/C (dose: 67.5 mg/kg/injection, schedule: Q01DX001 (ip), vehicle: saline + alcohol) was 104 % of control, the T/C (dose: 67.5 mg/kg/injection, schedule: Q01DX001 (iv), vehicle: saline + alcohol) was 105 % of control and the T/C (dose: 80.0 mg/kg/injection, schedule: Q03HX027 (sc), vehicle: saline + alcohol) was 121 % of control. The T/C (dose: 80.0 mg/kg/injection, schedule: Q03HX027 (sc), vehicle: saline) was 102 % of control, the T/C (dose: 90.0 mg/kg/injection, schedule: Q04DX003 (ip), vehicle: saline + alcohol) was 91 % of control and the T/C (dose: 240.0 mg/kg/injection, schedule: Q01DX009 (oral), vehicle: saline + alcohol) was 114 % of control. For the same compound, the T/C (dose: 36.0 micrograms per hour, schedule: Q#X X216 (sc), vehicle: saline) was 100 % of control, the T/C (dose: 72.0 micrograms per hour, schedule: Q#X X216 (sc), vehicle: saline) was 102 % of control and the T/C (dose: 144.0 micrograms per hour, schedule: Q#X X216 (sc), vehicle: saline) was 118 % of control.

In the case of `O=C(O)/C=C(\F)C(=O)O`, the T/C [1] is reported as 97 % of control and 100 % of control, the T/C [2] is reported as 102 % of control and 107 % of control and the T/C [3] is reported as 108 % of control and 117 % of control. For the same compound, the T/C [4] was 113 % of control and 114 % of control, the T/C [5] was 103 % of control and 113 % of control and the T/C [6] was 113 % of control and 103 % of control.

`CCCC1CC(C(=O)NC(C(C)O)C2OC(SC)C(O)C(O)C2O)N(C)C1` (centres undefined) was tested, and the T/C [7] was 113 % of control, the T/C [8] was 95 % of control and the T/C [9] was 100 % of control. The T/C [10] was 89 % of control.

In the case of `CCOC(=O)N1CCN(CCCCCOc2ccc(CC(C)(C)C)cc2Cl)CC1`, the T/C (dose: 3.13 mg/kg/injection, schedule: Q01DX009 (ip), vehicle: saline) is reported as 109 % of control, the T/C [1] is reported as 121 % of control and the T/C [2] is reported as 112 % of control. For the same compound, the T/C [3] was 101 % of control.

With `COc1cc(C)c(C2NC(=O)c3ccccc3N2)cc1C` (centres undefined) the T/C [7] was 111 % of control and 120 % of control, the T/C [8] was 115 % of control and 105 % of control and the T/C [9] was 111 % of control. For the same compound, the T/C [10] was 112 % of control and the T/C (dose: 800.0 mg/kg/injection, schedule: Q01DX009 (ip), vehicle: Klucel (hydroxypropylcellulose) (HPC)) was 107 % of control.

With `CSc1nc(N)nc2c1ncn2C1OC(CO)C(O)C1O` (centres undefined) the T/C [3] was 103 % of control, the T/C [4] was 123 % of control and the T/C [5] was 112 % of control. For the same compound, the T/C [6] was 97 % of control and the T/C (dose: 400.0 mg/kg/injection, schedule: Q01DX009 (ip), vehicle: saline) was 101 % of control.

With `O=C(NNC(=O)c1cccc(C(=O)NNC(=O)c2ccc(Cl)c(Cl)c2)n1)c1ccc(Cl)c(Cl)c1` the T/C (dose: 12.5 mg/kg/injection, schedule: Q01DX009 (ip), vehicle: Klucel (hydroxypropylcellulose) (HPC)) was 94 % of control and 105 % of control, the T/C (dose: 25.0 mg/kg/injection, schedule: Q01DX009 (ip), vehicle: Klucel (hydroxypropylcellulose) (HPC)) was 102 % of control and the T/C [7] was 91 % of control and 102 % of control. The T/C [8] was 94 % of control and 103 % of control and the T/C [9] was 105 % of control.
